Source: the supplement of paper PMC4858399
Where a name gives a salt, the structure may show the parent alone.

Columns and labels:
Details in all cases: exposure time 48 h
[1] = tested on: Caenorhabditis elegans N2; assay: AC50 for larval growth inhibition (Hill fit); higher = less potent
Method in brief: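 After 48 h at 20°C in K-medium with killed OP50, 1% DMSO and 0.5–200 µM chemical, synchronised C. elegans N2 L1 larvae (50 per well, 96-well plates) were sized individually as extinction on a COPAS Biosort. These values were log-transformed and averaged per well, and wells with fewer than 10 worms were excluded. The AC50 was derived from a constrained Hill fit by weighted genetic-algorithm regression, and out-of-range values are censored.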

[2] = tested on: Caenorhabditis elegans N2; assay: lowest effective concentration for larval growth inhibition (size below effect threshold); higher = less potent
Method in brief: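 Each well of a 96-well plate received 50 C. elegans N2 L1 larvae, which grew for 48 h at 20°C in K-medium containing killed bacteria, 1% DMSO and the chemical at 0.5, 1, 5, 10, 50, 100 or 200 µM. A Biosort recorded the extinction of every worm as its size, and these readings were log-transformed and averaged per well. The lowest effective concentration is defined as the first dose at which the plate-adjusted mean size falls below the threshold and stays below it at all higher doses; that threshold is 5.665.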

[3] = tested on: Caenorhabditis elegans N2; assay: mean nematode size ln(EXT) after 48 h, plate-adjusted (DMSO control set to 6) (ln(EXT), control-adjusted); higher = larger nematodes / less growth inhibition
Method in brief: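 Synchronised C. elegans N2 L1 larvae (50 per well, 4–6 wells per treatment) were grown for 48 h at 20°C in K-medium with killed OP50, 1% DMSO and 0.5–200 µM chemical. The Biosort measured each worm's extinction, and debris was removed by a growth model. Values were natural-logged and averaged per well. Mean size was then plate-adjusted by subtracting the vehicle control mean and adding 6.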

Row | SMILES | AC50 for larval growth inhibition [1] [µM] | lowest effective concentration [2] [µM] | mean nematode size ln(EXT) (ln) ([3]; 0.5 µM) | mean nematode size ln(EXT) (ln) ([3]; 1 µM) | mean nematode size ln(EXT) (ln) ([3]; 5 µM) | mean nematode size ln(EXT) (ln) ([3]; 10 µM) | mean nematode size ln(EXT) (ln) ([3]; 50 µM) | mean nematode size ln(EXT) (ln) ([3]; 100 µM) | mean nematode size ln(EXT) (ln) ([3]; 200 µM)
1 | Oc1ccc2c(c1)OC[C@@H](N1CCC(O)(c3ccc(F)cc3)CC1)[C@H]2O | 51.4 | 50 | 5.9 | 6.11 | 6.21 | 6.18 | 5.48 | 4.39 | 4.5
2 | O=S(=O)(O)C(F)(F)C(F)(F)C(F)(F)C(F)(F)C(F)(F)C(F)(F)C(F)(F)C(F)(F)F [Perfluorooctane sulfonic acid] | 17.4 | 5 | 5.78 | 5.91 | 5.28 | 5.06 | 4.32 | 4.28 | 3.33
3 | CCCCC(CC)CN1C(=O)C2C3C=CC(C3)C2C1=O (mixture of isomers) [MGK] | 185 | 200 | 5.99 | 5.99 | 5.97 | 5.98 | 5.81 | 5.84 | 4.3
4 | O=C(Nc1ccccc1)Nc1ccnc(Cl)c1 [Forchlorfenuron] | > 200 | 50 | 5.77 | 5.96 | 5.81 | 5.82 | 5.44 | 5.54 | 4.5
5 | CCCCOC(=O)[C@@H](C)Oc1ccc(Oc2ccc(C(F)(F)F)cn2)cc1 [Fluazifop-P-butyl] | 98.7 | 100 | 6.18 | 6.51 | 6.31 | 6.37 | 6.22 | 5.52 | 4.99
6 | CCC(=O)Nc1ccc(Cl)c(Cl)c1 [Propanil] | > 200 | 200 | 5.8 | 5.75 | 5.7 | 5.93 | 6 | 5.96 | 5.04
7 | CCOC(=O)C(C)Oc1ccc(Oc2nc3ccc(Cl)cc3o2)cc1 (centres undefined) [Fenoxaprop-ethyl] | 76.3 | 100 | 5.83 | 6.04 | 6 | 5.97 | 5.68 | 5.4 | 5.18
8 | CCCCCCCCCCCCCCCS(=O)(=O)Oc1ccccc1 [C10-21 sulfonic acids phenyl esters] | 169 | 200 | 6.06 | 6.02 | 5.89 | 6 | 5.93 | 5.96 | 3.65
9 | CC/C(=C(\c1ccccc1)c1ccc(OCCN(C)C)cc1)c1ccccc1 [Tamoxifen citrate salt] | 10.9 | 10 | 5.96 | 6 | 5.82 | 5.01 | 3.9 | 3.68 | –
10 | CSC(=O)c1c(C(F)F)nc(C(F)(F)F)c(C(=O)SC)c1CC(C)C [Dithiopyr] | 66.4 | 10 | 6.12 | 6.03 | 6.04 | 5.65 | 4.72 | 4.61 | 3.44
11 | CCCCC(O)(Cn1cncn1)c1ccc(Cl)cc1Cl (centres undefined) [Hexaconazole] | 84.2 | 100 | 5.86 | 5.78 | 5.71 | 5.99 | 5.81 | 4.65 | 4.09
12 | COP(=O)(OC)SCn1c(=O)oc2cc(Cl)cnc21 [Azamethiphos] | > 200 | 200 | 6.07 | 5.94 | 5.91 | 5.93 | 5.88 | 5.75 | 5.57
13 | Cn1cnc([N+](=O)[O-])c1Sc1ncnc2[nH]cnc12 [Azathioprine] | > 200 | 200 | 5.89 | 5.89 | 5.93 | 5.86 | 5.89 | 5.84 | 5.36
14 | O=C1C2CC=CCC2C(=O)N1SC(Cl)(Cl)Cl (centres undefined) [Captan] | 85.6 | 50 | 5.8 | 5.75 | 5.73 | 5.84 | 5.45 | 4.27 | 3.67
15 | Fc1ccc(Oc2ccnc3cc(Cl)cc(Cl)c23)cc1 [Quinoxyfen] | 1.53 | ≤ 0.5 | 4.9 | 5.31 | 4.26 | 4.2 | 3.97 | 4 | 3.68
16 | O=[N+]([O-])c1cc(C(F)(F)F)c(Cl)c([N+](=O)[O-])c1Nc1ncc(C(F)(F)F)cc1Cl [Fluazinam] | 31.6 | 50 | 6.05 | 6.17 | 5.81 | 6.15 | 3.61 | 3.85 | 3.23
17 | Nn1cnnc1 [4-Amino-4H-1,2,4-triazole] | > 200 | 200 | 5.81 | 5.85 | 5.83 | 5.8 | 5.57 | 5.78 | 5.36
18 | CCCCN(CCCC)SN(C)C(=O)Oc1cccc2c1OC(C)(C)C2 [Carbosulfan] | 60.2 | 1 | 5.76 | 5.51 | 5.04 | 4.86 | 5.15 | 4.44 | 4
19 | COC(=O)C=C(C)OP(=O)(OC)OC [Mevinphos] | 156 | 200 | 6.16 | 6.21 | 6.22 | 6.29 | 4.99 | 5.74 | 3.88
20 | CCCN(CC)CC1COC2(CCC(C(C)(C)C)CC2)O1 (centres undefined) [Spiroxamine] | 184 | 200 | 5.61 | 5.84 | 5.9 | 6.1 | 5.84 | 6.17 | 3.97
